{"source": "patent US10085933B2", "about": "“Cosmetic use of an essential oil of Laserpitium siler L. for keratin materials” (L'OREAL, priority 2013, dated 2018)", "system": "dermal capillaries of normal human skin maintained alive", "experiment": "Vascular modulation (vasodilation/vasoconstriction) in a model of normal human skin maintained alive; histological morphometry of dermal capillaries", "type": "cell-based", "conditions": "1 μM noradrenalin in culture medium, 48 hours organ culture; for percentage of dilated vessels (dilated capillaries): mean of six skin samples, control skin 74.8 ± 20.8; for mean area occupied by the lumen of the blood vessels (capillaries) in the dermis: control skin 153.6 ± 74.4", "text": "The object of this study is to analyse the effect on vascular modulation, namely vasodilation or vasoconstriction, of the essential oil of Laserpitium siler L. evaluated in a model of normal human skin maintained alive.\nThe analyses are histological by morphometric quantification of the calibre of the dermal capillaries and semi-quantitative evaluation of the oedema.\nFragments of normal human skin are obtained from a plastic surgery. They are placed in inserts, which are themselves positioned on culture wells. Culture medium specifically adapted to survival maintenance is added to the bottom of the wells, a passage being made by slow diffusion between the two compartments via a porous membrane (3 μm).\nThe second positive control consisted in adding 1 μM noradrenalin to the culture medium so as to obtain vasoconstriction of the dermal capillaries.\nThe essential oil of Laserpitium siler L. at the test concentrations dissolved in ethanol is added to the culture medium.\nThe skin fragments are then maintained in organ culture for 48 hours in an oven under a humid atmosphere, at 37° C. and in the presence of 5% CO2.\nThe skin fragments are fixed in Bouin liquid and included in paraffin. After staining with haemalum-eosin, two criteria are evaluated on the dermis: the oedema and the calibre of the capillaries.\nAfter staining with haemalum-eosin, the vascular dilation is evaluated by counting the number of dilated blood vessels on the entire histological slice (16 fields at magnification 40). This number is carried over to the total number of blood vessels in order to calculate the percentage of dilated vessels.\nMoreover, a morphometric analysis of the area (μm^2) occupied by the lumen of the blood vessels was performed in order to determine the mean area (μm^2) occupied in the dermis by the vessels.\nA mean is calculated for each parameter from the results obtained on the six skin samples. The statistical analysis was performed via the “reduced deviation” Student test or paired-samples test, with a risk a of 5%.", "data": [{"smiles": "NC[C@H](O)c1ccc(O)c(O)c1", "note": "[noradrenalin]", "values": [{"measurement": "percentage of dilated vessels (dilated capillaries)", "result": "52.5 ± 20.6", "unit": "%"}, {"measurement": "percentage of dilated vessels (dilated capillaries)", "setting": "listed as Noradrenalin", "result": 52.5, "unit": "%"}, {"measurement": "mean area occupied by the lumen of the blood vessels (capillaries) in the dermis", "result": "93.7 ± 65.7", "unit": "μm^2"}, {"measurement": "mean area occupied by the lumen of the blood vessels (capillaries) in the dermis", "setting": "listed as Noradrenalin", "result": 93.7, "unit": "μm^2"}]}]}
